Results taken from patent publication US11352350B2, “IRAK degraders and uses thereof” (Kymera Therapeutics, Inc., priority 2018, dated 2022).
Read-outs that look alike come from different tables or passages of the source.

How the values were obtained:
TMD8 tumor cells = assay: TMD8 large B lymphoma xenograft model in C.B. 17 SCID mice; format: in vivo, mouse; conditions: FIG. 6 A-C
Method: Cell Culture: The OCI-LY10 or TMD8 tumor cells were maintained as suspension in RPMI1640 medium supplemented with 10% fetal bovine serum, 100 U/mL penicillin and 100 μg/mL streptomycin at 37° C. in an atmosphere of 5% CO2 in air. The tumor cells were routinely subcultured twice weekly by trypsin-EDTA treatment. The cells growing in an exponential growth phase were harvested and counted for tumor inoculation.
Animals: C.B. 17 SCID, female, 6-8 weeks, weighing approximately 16-18 g were used. Animals were housed and maintained according to IACUC protocols. […]
Assignment to Groups: Before commencement of treatment, all animals were weighed and the tumor volumes were measured. […]
Observation: After tumor inoculation, the animals were checked daily for morbidity and mortality. […] Mortality and observed clinical signs were recorded for individual animals in detail.
Data Collection: Tumor volumes were measured in two dimensions using a caliper, and the volumes were expressed in mm^3 using the formula: “V=(L×W×W)/2, where V is tumor volume, L is tumor length (the longest tumor dimension) and W is tumor width (the longest tumor dimension perpendicular to L).
At termination: At pre-determined time points based on study design, animals were humanely sacrificed by CO2. […] Compound was determined in tumor and plasma using LC/MS with calibrated standards.

IRAK4 [1] = biological target: IRAK4 (Mus musculus (Mouse), UniProt Q8R4K2); assay: In vivo IRAK4 degradation in BALB/c mouse spleen (air pouch study); conditions: three PO doses; FIG. 8
Method: Dosing of Degrader: Mice were dosed orally at 10 mL/kg with suspensions above, giving 10 mg/kg, 30 mg/kg and 100 mg/kg final dose levels, three times at 8-hour intervals.
Termination, Cell Collection and Data: Four hours after MSU/saline injection, the mice were anesthetized and humanely exsanguinated. The spleens were removed, halved, flash frozen in labeled Eppendorf tubes in liquid nitrogen, and stored at −80° C. for determination of IRAK4 using targeted MS/MS with labeled peptide internal standard. Immediately after the bleed, 3 ml 10 U/mL heparinized saline was injected into the air pouch. The air pouch was gently massaged, the contents immediately removed, and the exudate volume recorded. After allowing the MSU crystals to settle out for fifteen minutes in an ice bath, an aliquot of the exudate was transferred to labeled Eppendorf tubes for differential white blood cell counts, including neutrophils.

OCI-LY10 cells = assay: OCI-LY10 flow staining (Ki67, active Caspase-3, IRAK4); format: cell-based, human; conditions: FIG. 4
Method: OC1-LY10 cell line was cultured in IMDM medium supplemented with 20% FBS, B-ME and pen/strep. On Day 1, cells were plated at 200K per well in 96 well plates. Compounds were diluted to 1000× in DMSO, then further diluted to 100× in media, and added to cells at 4 concentrations over 4 different timepoints (24h, 48h, 72h and 96h). Timepoints were staggered so all cells were harvested and stained at the same time. Paclitaxel was added as a positive control and a DMSO control for each timepoint was also included. On day 5, plates were harvested and cells were fixed, permeabilized, and stored at −4 C until further processing. On day 8, the Ki67 plates were stained using KI-67-APC antibody (Biolegend, Cat #350514). The Caspase 3 plates were stained using the PE Active Caspase-3 Apoptosis Kit (BD Biosciences, Cat #550914) and the IRAK 4 plates were stained with Hu IRAK4 A^b Alexa 647 Clone: L29-525 antibody (BD, Cat #560315). Cells were resuspended in staining buffer and run on a Beckman Coulter CytoFlex 13 color Cytometer (Model #A00-1-1102, Serial #AS10086).

OCI-LY10 = assay: CTG Cell Viability Assay - OCI-LY10; format: cell-based, human
Outline: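 Viability read by CellTiter-Glo luminescence after 4 days at 37° C under 5% CO2 with compound (top 10 μM final, 1:3 steps, 9 doses, DMSO 0.2%). Three-parameter logistic fit gave IC50.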

U2932 = U2932 viability, CTG; format: cell-based; conditions: Homo sapiens, U2932
[2] = test system: cytokines induced by TLR stimuli; assay: Human whole blood cytokine release assays; format: cell-based; conditions: compared with IRAK4 inhibition with PF-06550833, FIG. 16
Method: Fresh human whole blood was collected in Na Heparin tubes and received from […] same day as collection. 200 uL of whole blood was aliquoted per well into a 96 well plate. Whole blood was pre-incubated with compounds overnight at 37° C., 5% CO2. Following compound incubation, samples were stimulated with […] (invivogen #tlrl-r848), LPS 10 ng/mL (Sigma #L2637) or IL-1β 25 ng/mL (R&D systems 201-LB) and incubated for an additional 5 hours. At the end of the assay, blood was spun down for 15 min at 4° C. and plasma was collected and immediately stored at −80° C. Cytokine and chemokine levels were measured by custom ordered U-plex MSD panels (panel 1: IFNy, IL-10, IL-1β, IL-6, IL-8, TNFα) and (panel 2: IP-10, MIP1-α, MIP-1β, IL-12/IL-23p40, GROα).

IKAROS = IKAROS (Homo sapiens (Human), UniProt Q13422+Q96SW2); assay: IKAROS degradation in OCI-LY10 (DC50); format: cell-based
OCI-LY3 = OCI-LY3 viability, CTG; format: cell-based; conditions: Homo sapiens, MYD88 MUT
IRAK4 [3] = biological target: IRAK4 (Homo sapiens (Human), UniProt Q9NWZ3); assay: IRAK4 degradation in OCI-LY10 (DC50); format: cell-based
IRAK4 (Homo sapiens (Human), UniProt Q9NWZ3), sequence (Q9NWZ3 whole entry): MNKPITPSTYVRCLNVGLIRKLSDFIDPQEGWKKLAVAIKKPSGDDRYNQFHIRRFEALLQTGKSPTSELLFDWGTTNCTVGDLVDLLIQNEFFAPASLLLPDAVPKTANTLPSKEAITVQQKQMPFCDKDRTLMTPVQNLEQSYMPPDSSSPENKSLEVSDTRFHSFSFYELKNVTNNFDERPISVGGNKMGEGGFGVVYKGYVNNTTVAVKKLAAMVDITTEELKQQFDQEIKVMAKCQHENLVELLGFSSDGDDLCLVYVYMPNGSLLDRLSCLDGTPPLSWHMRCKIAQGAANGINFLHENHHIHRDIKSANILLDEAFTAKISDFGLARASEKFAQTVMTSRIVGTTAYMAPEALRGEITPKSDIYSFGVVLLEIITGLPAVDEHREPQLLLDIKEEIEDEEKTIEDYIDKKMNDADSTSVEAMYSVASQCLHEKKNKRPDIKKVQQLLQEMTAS

IKAROS, sequence (Q13422 whole entry): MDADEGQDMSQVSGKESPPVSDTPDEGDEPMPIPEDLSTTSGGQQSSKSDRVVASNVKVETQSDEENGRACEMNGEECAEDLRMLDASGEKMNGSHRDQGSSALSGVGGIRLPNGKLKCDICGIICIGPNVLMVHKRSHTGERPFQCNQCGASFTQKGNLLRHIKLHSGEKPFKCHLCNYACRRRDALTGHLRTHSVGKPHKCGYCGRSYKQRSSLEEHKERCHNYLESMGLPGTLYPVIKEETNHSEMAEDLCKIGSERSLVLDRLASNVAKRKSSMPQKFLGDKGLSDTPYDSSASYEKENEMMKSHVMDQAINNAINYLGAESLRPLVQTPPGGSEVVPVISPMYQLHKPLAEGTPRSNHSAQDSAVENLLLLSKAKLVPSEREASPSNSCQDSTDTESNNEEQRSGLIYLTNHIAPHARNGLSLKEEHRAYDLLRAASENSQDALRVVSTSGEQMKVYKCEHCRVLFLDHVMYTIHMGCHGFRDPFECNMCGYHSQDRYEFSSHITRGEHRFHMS
IKAROS, sequence (Q96SW2 whole entry): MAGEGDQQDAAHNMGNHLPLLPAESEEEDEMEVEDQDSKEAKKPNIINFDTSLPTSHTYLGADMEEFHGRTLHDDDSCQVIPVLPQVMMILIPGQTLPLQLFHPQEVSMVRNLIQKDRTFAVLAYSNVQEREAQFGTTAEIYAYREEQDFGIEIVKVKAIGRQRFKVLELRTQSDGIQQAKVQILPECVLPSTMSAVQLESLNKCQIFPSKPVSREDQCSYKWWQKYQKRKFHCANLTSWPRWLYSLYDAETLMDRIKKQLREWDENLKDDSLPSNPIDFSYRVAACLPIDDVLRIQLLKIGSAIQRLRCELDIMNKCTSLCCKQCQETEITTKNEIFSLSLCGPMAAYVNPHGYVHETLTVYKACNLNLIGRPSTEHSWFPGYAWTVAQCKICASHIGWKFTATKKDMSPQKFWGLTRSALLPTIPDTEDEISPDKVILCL
IKAROS, sequence (Q16531 whole entry partner): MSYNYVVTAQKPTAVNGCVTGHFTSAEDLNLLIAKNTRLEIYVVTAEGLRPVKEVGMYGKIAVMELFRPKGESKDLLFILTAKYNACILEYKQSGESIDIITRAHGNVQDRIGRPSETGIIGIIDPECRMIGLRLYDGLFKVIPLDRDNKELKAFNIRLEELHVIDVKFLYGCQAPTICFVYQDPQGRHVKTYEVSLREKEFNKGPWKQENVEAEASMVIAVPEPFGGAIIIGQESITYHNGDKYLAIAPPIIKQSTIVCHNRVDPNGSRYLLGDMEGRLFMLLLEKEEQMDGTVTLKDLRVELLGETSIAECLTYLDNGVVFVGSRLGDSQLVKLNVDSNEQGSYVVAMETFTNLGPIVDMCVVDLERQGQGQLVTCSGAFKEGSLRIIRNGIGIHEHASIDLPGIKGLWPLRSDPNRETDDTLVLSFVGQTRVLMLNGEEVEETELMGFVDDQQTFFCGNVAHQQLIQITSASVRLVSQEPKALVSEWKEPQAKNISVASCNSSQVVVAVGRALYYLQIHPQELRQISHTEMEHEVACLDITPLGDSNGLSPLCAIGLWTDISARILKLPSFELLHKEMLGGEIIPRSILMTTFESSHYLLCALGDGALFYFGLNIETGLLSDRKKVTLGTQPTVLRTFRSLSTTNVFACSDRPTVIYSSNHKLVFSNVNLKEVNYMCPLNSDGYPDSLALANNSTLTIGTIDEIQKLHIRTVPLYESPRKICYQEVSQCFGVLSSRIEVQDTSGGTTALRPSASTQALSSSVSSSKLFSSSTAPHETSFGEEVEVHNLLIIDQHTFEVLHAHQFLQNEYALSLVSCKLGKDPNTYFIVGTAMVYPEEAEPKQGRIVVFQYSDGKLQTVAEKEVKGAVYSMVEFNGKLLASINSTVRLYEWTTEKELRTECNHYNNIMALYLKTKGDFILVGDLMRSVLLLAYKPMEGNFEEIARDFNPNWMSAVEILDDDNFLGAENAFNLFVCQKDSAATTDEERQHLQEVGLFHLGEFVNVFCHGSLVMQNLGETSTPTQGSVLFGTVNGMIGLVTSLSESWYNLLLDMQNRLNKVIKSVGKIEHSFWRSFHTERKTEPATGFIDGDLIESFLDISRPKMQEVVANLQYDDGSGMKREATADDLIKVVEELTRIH
IRAK4 (Mus musculus (Mouse), UniProt Q8R4K2), sequence (Q8R4K2 whole entry): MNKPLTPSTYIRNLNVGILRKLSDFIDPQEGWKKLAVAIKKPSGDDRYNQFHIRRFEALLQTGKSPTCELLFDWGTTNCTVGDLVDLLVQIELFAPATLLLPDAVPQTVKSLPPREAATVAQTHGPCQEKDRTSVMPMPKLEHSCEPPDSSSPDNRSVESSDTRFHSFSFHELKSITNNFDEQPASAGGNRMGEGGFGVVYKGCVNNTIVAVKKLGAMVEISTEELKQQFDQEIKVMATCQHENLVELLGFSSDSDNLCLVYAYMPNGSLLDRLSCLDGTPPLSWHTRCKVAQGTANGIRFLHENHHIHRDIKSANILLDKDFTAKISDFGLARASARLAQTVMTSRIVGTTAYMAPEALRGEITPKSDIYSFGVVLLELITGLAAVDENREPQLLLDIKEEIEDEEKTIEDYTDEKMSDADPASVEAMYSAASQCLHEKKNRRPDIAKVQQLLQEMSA

SMILES | activity in TMD8 xenograft model (TMD8 tumor cells) | IRAK4 in BALB/c mouse spleen (IRAK4 [1]) | induction of apoptosis in OCI-LY10 lymphoma line (OCI-LY10 cells) | cytotoxicity in OCI-LY10 lymphoma line (OCI-LY10; FIG. 5) | IC50 (OCI-LY10; Homo sapiens, OCI-Ly10, 96 h, OCI-LY10, 4 days, read-out: CTG Cell Viability Assay - OCI-LY10: Average external-IC50) | IC50 (U2932; MYD88 WT Lines, read-out: U2932 Viability, CTG IC50) | IC50 (U2932; MYD88 WT, read-out: U2932 CTG IC50) | range of cytokines inhibited, induced by different TLR stimuli [2] | DC50 (IKAROS) | IC50 (OCI-LY3) | DC50 (IRAK4 [3]; read-out: IRAK4 Degradation in OCI-LY10, DC50) | DC50 (IRAK4 [3]; read-out: IRAK4 OCI-LY10 DC50)
CN(CCCOCCCc1cccc2c1n(C)c(=O)n2C1CCC(=O)NC1=O)C[C@H]1CC[C@H](n2cc(NC(=O)c3coc(-c4ccnc(NCC5CC5)c4)n3)c(C(F)F)n2)CC1 (mixture of isomers) [I-30, 2-[2-(Cyclopropylmethylamino)-4-pyridyl]-N-[3-(difluoromethyl)-1-[4-[[3-[3-[1-(2,6-dioxo-3-piperidyl)-3-methyl-2-oxo-benzimidazol-4-yl]propoxy]propyl-methyl-amino]methyl]cyclohexyl]pyrazol-4-yl] oxazole-4-carboxamide] | active | in vivo degradation of IRAK4 | induces apoptosis | cytotoxic | 100 to 500 nM |  |  |  |  |  |  | 
CN(C[C@H]1CC[C@H](n2cc(NC(=O)c3coc(-c4ccnc(NCC5CC5)c4)n3)c(C(F)F)n2)CC1)C1CCN(Cc2cccc3c2n(C)c(=O)n3C2CCC(=O)NC2=O)CC1 (stereo partly drawn) [I-75, 2-(2-((cyclopropylmethyl)amino)pyridin-4-yl)-N-(3-(difluoromethyl)-1-((1r,4r)-4-(((1-((1-(2,6-dioxopiperidin-3-yl)-3-methyl-2-oxo-2,3-dihydro-1H-benzo[d]imidazol-4-yl)methyl)piperidin-4-yl)(methyl)amino)methyl)cyclohexyl)-1H-pyrazol-4-yl)oxazole-4-carboxamide] |  |  |  |  |  | 374 nM | 374 nM | inhibits a broader range of cytokines | > 100 nM | 180 nM | 8 nM | 8 nM
